What was measured:
Experiment in all cases: relative viability (nuclei count vs DMSO), 5 days (fraction); higher = more cells survive
NCI-H1666 = tested on: NCI-H1666
Method in brief: (§1)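 Relative viability is defined as nuclei in treated wells over nuclei in vehicle wells. Duplicate plates were run and medians reported. Lung cancer cell lines in 1536-well plates were dosed by pin tool one day after seeding, with one drug or with a fixed anchor-drug dose plus five library-drug doses (not always all listed) in √10 steps, and nuclei were counted after 5 days.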

NCI-H2126 = tested on: NCI-H2126
Method in brief: as §1

NCI-H1792 = tested on: NCI-H1792
Method in brief: as §1

NCI-H3122 = tested on: NCI-H3122
Method in brief: as §1

SK-LU-1 = tested on: SK-LU-1
Method in brief: as §1

NCI-H2347 = tested on: NCI-H2347
Method in brief: as §1

HCC-827 = tested on: HCC-827
Method in brief: as §1

ChaGo-K-1 = tested on: ChaGo-K-1
Method in brief: as §1

NCI-H1793 = tested on: NCI-H1793
Method in brief: as §1

NCI-H1755 = tested on: NCI-H1755
Method in brief: as §1

LU99A = tested on: LU99A
Method in brief: as §1

RERF-LC-KJ = tested on: RERF-LC-KJ
Method in brief: as §1

LXF-289 = tested on: LXF-289
Method in brief: as §1

NCI-H520 = tested on: NCI-H520
Method in brief: as §1

NCI-H1395 = tested on: NCI-H1395
Method in brief: as §1

ABC-1 = tested on: ABC-1
Method in brief: as §1

CAL-12T = tested on: CAL-12T
Method in brief: as §1

NCI-H358 = tested on: NCI-H358
Method in brief: as §1

NCI-H1944 = tested on: NCI-H1944
Method in brief: as §1

LCLC-103H = tested on: LCLC-103H
Method in brief: as §1

NCI-H322M = tested on: NCI-H322M
Method in brief: as §1

Cc1csc(=NC2CCCCC2)n1/N=C/c1ccc(O)c(O)c1O [MIM1] + Cc1nc(Nc2ncc(C(=O)Nc3c(C)cccc3Cl)s2)cc(N2CCN(CCO)CC2)n1 [Dasatinib] (partner 0.075 µM)
relative viability (NCI-H1666; first compound 0.2 µM): 0.788 | relative viability (NCI-H1666; first compound 0.6325 µM): 0.852 | relative viability (NCI-H1666; first compound 2 µM): 0.711 | relative viability (NCI-H1666; first compound 6.325 µM): 0.528 | relative viability (NCI-H1666; first compound 20 µM): 0.41 | relative viability (NCI-H2126; first compound 0.2 µM): 0.679 | relative viability (NCI-H2126; first compound 0.6325 µM): 0.582 | relative viability (NCI-H2126; first compound 2 µM): 0.583 | relative viability (NCI-H2126; first compound 6.325 µM): 0.471 | relative viability (NCI-H2126; first compound 20 µM): 0.287 | relative viability (NCI-H1792; first compound 0.2 µM): 0.786 | relative viability (NCI-H1792; first compound 0.6325 µM): 0.661 | relative viability (NCI-H1792; first compound 2 µM): 0.716 | relative viability (NCI-H1792; first compound 6.325 µM): 0.757 | relative viability (NCI-H1792; first compound 20 µM): 0.808 | relative viability (NCI-H3122; first compound 0.2 µM): 0.779 | relative viability (NCI-H3122; first compound 0.6325 µM): 0.717 | relative viability (NCI-H3122; first compound 2 µM): 0.882 | relative viability (NCI-H3122; first compound 6.325 µM): 0.325 | relative viability (NCI-H3122; first compound 20 µM): 0.122 | relative viability (SK-LU-1; first compound 0.2 µM): 0.155 | relative viability (SK-LU-1; first compound 0.6325 µM): 0.19 | relative viability (SK-LU-1; first compound 2 µM): 0.189 | relative viability (SK-LU-1; first compound 6.325 µM): 0.166 | relative viability (SK-LU-1; first compound 20 µM): 0.235 | relative viability (NCI-H2347; first compound 0.2 µM): 0.298 | relative viability (NCI-H2347; first compound 0.6325 µM): 0.284 | relative viability (NCI-H2347; first compound 2 µM): 0.291 | relative viability (NCI-H2347; first compound 6.325 µM): 0.339 | relative viability (NCI-H2347; first compound 20 µM): 0.26 | relative viability (HCC-827; first compound 0.2 µM): 0.376 | relative viability (HCC-827; first compound 0.6325 µM): 0.308 | relative viability (HCC-827; first compound 2 µM): 0.259 | relative viability (HCC-827; first compound 6.325 µM): 0.348 | relative viability (HCC-827; first compound 20 µM): 0.488 | relative viability (ChaGo-K-1; first compound 0.2 µM): 0.594 | relative viability (ChaGo-K-1; first compound 0.6325 µM): 0.552 | relative viability (ChaGo-K-1; first compound 2 µM): 0.562 | relative viability (ChaGo-K-1; first compound 6.325 µM): 0.466 | relative viability (ChaGo-K-1; first compound 20 µM): 0.173 | relative viability (NCI-H1793; first compound 0.2 µM): 0.417 | relative viability (NCI-H1793; first compound 2 µM): 0.372 | relative viability (NCI-H1793; first compound 6.325 µM): 0.359 | relative viability (NCI-H1793; first compound 20 µM): 0.31 | relative viability (NCI-H1755; first compound 0.2 µM): 0.467 | relative viability (NCI-H1755; first compound 0.6325 µM): 0.442 | relative viability (NCI-H1755; first compound 2 µM): 0.424 | relative viability (NCI-H1755; first compound 6.325 µM): 0.391 | relative viability (NCI-H1755; first compound 20 µM): 0.23 | relative viability (LU99A; first compound 0.2 µM): 0.752 | relative viability (LU99A; first compound 0.6325 µM): 0.54 | relative viability (LU99A; first compound 2 µM): 0.48 | relative viability (LU99A; first compound 6.325 µM): 0.37 | relative viability (LU99A; first compound 20 µM): 0.21 | relative viability (RERF-LC-KJ; first compound 0.2 µM): 0.632 | relative viability (RERF-LC-KJ; first compound 0.6325 µM): 0.748 | relative viability (RERF-LC-KJ; first compound 2 µM): 0.551 | relative viability (RERF-LC-KJ; first compound 6.325 µM): 0.361 | relative viability (RERF-LC-KJ; first compound 20 µM): 0.228 | relative viability (LXF-289; first compound 0.2 µM): 0.224 | relative viability (LXF-289; first compound 0.6325 µM): 0.174 | relative viability (LXF-289; first compound 2 µM): 0.194 | relative viability (LXF-289; first compound 6.325 µM): 0.275 | relative viability (LXF-289; first compound 20 µM): 0.177 | relative viability (NCI-H520; first compound 0.2 µM): 0.19 | relative viability (NCI-H520; first compound 0.6325 µM): 0.21 | relative viability (NCI-H520; first compound 2 µM): 0.286 | relative viability (NCI-H520; first compound 6.325 µM): 0.18 | relative viability (NCI-H520; first compound 20 µM): 0.192 | relative viability (NCI-H1395; first compound 0.2 µM): 0.504 | relative viability (NCI-H1395; first compound 0.6325 µM): 0.465 | relative viability (NCI-H1395; first compound 2 µM): 0.381 | relative viability (NCI-H1395; first compound 6.325 µM): 0.443 | relative viability (NCI-H1395; first compound 20 µM): 0.303 | relative viability (ABC-1; first compound 0.2 µM): 0.598 | relative viability (ABC-1; first compound 0.6325 µM): 0.555 | relative viability (ABC-1; first compound 2 µM): 0.543 | relative viability (ABC-1; first compound 6.325 µM): 0.299 | relative viability (ABC-1; first compound 20 µM): 0.248 | relative viability (CAL-12T; first compound 0.2 µM): 0.258 | relative viability (CAL-12T; first compound 0.6325 µM): 0.38 | relative viability (CAL-12T; first compound 2 µM): 0.215 | relative viability (CAL-12T; first compound 6.325 µM): 0.311 | relative viability (CAL-12T; first compound 20 µM): 0.115 | relative viability (NCI-H358; first compound 0.2 µM): 0.182 | relative viability (NCI-H358; first compound 0.6325 µM): 0.174 | relative viability (NCI-H358; first compound 2 µM): 0.179 | relative viability (NCI-H358; first compound 6.325 µM): 0.173 | relative viability (NCI-H358; first compound 20 µM): 0.126 | relative viability (NCI-H1944; first compound 0.2 µM): 0.214 | relative viability (NCI-H1944; first compound 0.6325 µM): 0.204 | relative viability (NCI-H1944; first compound 2 µM): 0.21 | relative viability (NCI-H1944; first compound 6.325 µM): 0.191 | relative viability (NCI-H1944; first compound 20 µM): 0.176 | relative viability (LCLC-103H; first compound 0.2 µM): 0.422 | relative viability (LCLC-103H; first compound 0.6325 µM): 0.519 | relative viability (LCLC-103H; first compound 2 µM): 0.512 | relative viability (LCLC-103H; first compound 6.325 µM): 0.401 | relative viability (LCLC-103H; first compound 20 µM): 0.364 | relative viability (NCI-H322M; first compound 0.2 µM): 0.265 | relative viability (NCI-H322M; first compound 0.6325 µM): 0.245 | relative viability (NCI-H322M; first compound 2 µM): 0.249 | relative viability (NCI-H322M; first compound 6.325 µM): 0.27 | relative viability (NCI-H322M; first compound 20 µM): 0.38
